In US20170129932A1, “METHOD FOR PREPARING RECOMBINANT GLYCOPROTEIN HAVING HIGH SIALIC ACID CONTENT, THROUGH GLYCOSPHINGOLIPID SYNTHESIS CYCLE CONTROL” (KOREA ADVANCED INSTITUTE OF SCIENCE AND TECHNOLOGY, priority 2014, published 2017):

Key:
EC2-1H9 cell line [1] = details: WGA lectin blotting, EC2-1H9 cells, 1 μM EtDO-P4, FIGS. 1B and 1C
Procedure: Particularly, in order to treat EtDO-P4, the cells (5×10^6) were cultured in 100-mm plates containing MEM-α supplemented with 10% dFBS for 24 hours. The cells were washed twice with serum-free MEM-α. Then, the cells were added with 1 μM EtDO-P4/MEM-α, followed by further culture for 48 hours.

EC2-1H9 cell line [2] = assay: Glycosphingolipid (GSL) extraction and TLC in EC2-1H9 cells; type: cell-based, Chinese hamster; details: 1 μM EtDO-P4, 48 hours, FIG. 1A
Procedure: Glycosphingolipid (GSL) was sonicated for 30 minutes, followed by extraction using chloroform/methanol (C/M; 2:1, v/v) and isopropanol/hexane/water (IPA/H/W; 55:25:20 v/v/v). The GSL extract was dissolved in 0.1 M NaOH/MeOH, followed by culture for 2 hours at 40 °C. The extract was neutralized with 1 N HCl, to which hexane was added. The mixture stood for 5 minutes. The lower layer was evaporated in the N2 atmosphere, and the remaining part was dissolved in distilled water. The mixture was applied to […] (Varian, Palo Alto, Calif.). After washed with distilled water, total GSL was extracted with C/M, followed by evaporation. The residue dissolved in C/M was spotted on TLC plate (Silica Gel 60 F-254, Merck), followed by development in C/M/0.2% CaCl2 (55:40:10, v/v/v). The plate was then stained with 2% orcinol in 2 M H2SO4 by spraying.

`CCCCCCCCCCCCCCCC(=O)N[C@H](CN1CCCC1)[C@H](O)c1ccc2c(c1)OCCO2` [EtDO-P4, D-threo-1-(3′,4′-ethylenedioxy)-phenyl-2-palmitoylamino-3-pyrrolidino-1-propanol] was tested, and the “increase of sialic acid content of purified rhEpo” value (EC2-1H9 cell line [1]) was “up to 22%” and the “major GSLs, GM1, GM2, and GM3” value (EC2-1H9 cell line [2]) was “reduced completely”.
